Consider one compound from PMC7939391, “[4Fe-4S] cluster trafficking mediated by Arabidopsis mitochondrial ISCA and NFU proteins” (The Journal of Biological Chemistry, 2021).

The structures appear in SMILES notation.

This test has as its target T1, ACO2 (Arabidopsis thaliana, UniProt Q94A28).
T1 construct: untagged recombinant from pET15b (NcoI-XhoI), E. coli BL21(DE3); forward primer encodes start MASEHSY (transit peptide removed)
T1 sequence (Q94A28 98-995): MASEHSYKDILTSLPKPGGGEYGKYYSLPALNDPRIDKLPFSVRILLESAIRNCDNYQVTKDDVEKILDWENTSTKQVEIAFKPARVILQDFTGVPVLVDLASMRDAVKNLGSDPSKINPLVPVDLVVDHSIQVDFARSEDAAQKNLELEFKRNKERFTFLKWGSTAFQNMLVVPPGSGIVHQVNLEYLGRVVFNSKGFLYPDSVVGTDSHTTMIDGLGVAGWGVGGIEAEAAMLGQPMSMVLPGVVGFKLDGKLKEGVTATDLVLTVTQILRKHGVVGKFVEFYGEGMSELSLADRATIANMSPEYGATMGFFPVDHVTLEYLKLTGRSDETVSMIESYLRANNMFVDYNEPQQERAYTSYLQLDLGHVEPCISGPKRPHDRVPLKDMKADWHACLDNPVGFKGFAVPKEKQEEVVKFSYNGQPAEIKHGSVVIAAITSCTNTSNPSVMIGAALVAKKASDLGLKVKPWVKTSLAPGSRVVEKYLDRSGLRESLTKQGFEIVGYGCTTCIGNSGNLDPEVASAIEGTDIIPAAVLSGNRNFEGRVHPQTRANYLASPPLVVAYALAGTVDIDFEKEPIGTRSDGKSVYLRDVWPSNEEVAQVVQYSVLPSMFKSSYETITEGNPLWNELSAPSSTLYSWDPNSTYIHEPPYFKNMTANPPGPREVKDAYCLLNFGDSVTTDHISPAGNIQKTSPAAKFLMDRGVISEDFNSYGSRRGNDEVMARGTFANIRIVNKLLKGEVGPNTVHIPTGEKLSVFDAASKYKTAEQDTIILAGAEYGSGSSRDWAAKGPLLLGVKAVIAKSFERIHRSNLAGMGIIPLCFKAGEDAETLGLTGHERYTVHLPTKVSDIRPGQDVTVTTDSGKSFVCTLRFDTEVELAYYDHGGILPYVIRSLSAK
Nature of the test: absorbance at […] nm. In kind it is biochemical. As to conditions: from citrate or isocitrate; [4Fe-4S]-loaded enzyme.

Take `O=C(O)/C=C(/CC(=O)O)C(=O)O` [cis-aconitate]: the “absorbance at 240 nm” value was “following the formation of cis-aconitate from citrate or isocitrate”.
